SMILES strings stand for the structures.

The target in one data set is T1, JAK3 (Homo sapiens, UniProt P52333).
T1 sequence (P52333 1-1124): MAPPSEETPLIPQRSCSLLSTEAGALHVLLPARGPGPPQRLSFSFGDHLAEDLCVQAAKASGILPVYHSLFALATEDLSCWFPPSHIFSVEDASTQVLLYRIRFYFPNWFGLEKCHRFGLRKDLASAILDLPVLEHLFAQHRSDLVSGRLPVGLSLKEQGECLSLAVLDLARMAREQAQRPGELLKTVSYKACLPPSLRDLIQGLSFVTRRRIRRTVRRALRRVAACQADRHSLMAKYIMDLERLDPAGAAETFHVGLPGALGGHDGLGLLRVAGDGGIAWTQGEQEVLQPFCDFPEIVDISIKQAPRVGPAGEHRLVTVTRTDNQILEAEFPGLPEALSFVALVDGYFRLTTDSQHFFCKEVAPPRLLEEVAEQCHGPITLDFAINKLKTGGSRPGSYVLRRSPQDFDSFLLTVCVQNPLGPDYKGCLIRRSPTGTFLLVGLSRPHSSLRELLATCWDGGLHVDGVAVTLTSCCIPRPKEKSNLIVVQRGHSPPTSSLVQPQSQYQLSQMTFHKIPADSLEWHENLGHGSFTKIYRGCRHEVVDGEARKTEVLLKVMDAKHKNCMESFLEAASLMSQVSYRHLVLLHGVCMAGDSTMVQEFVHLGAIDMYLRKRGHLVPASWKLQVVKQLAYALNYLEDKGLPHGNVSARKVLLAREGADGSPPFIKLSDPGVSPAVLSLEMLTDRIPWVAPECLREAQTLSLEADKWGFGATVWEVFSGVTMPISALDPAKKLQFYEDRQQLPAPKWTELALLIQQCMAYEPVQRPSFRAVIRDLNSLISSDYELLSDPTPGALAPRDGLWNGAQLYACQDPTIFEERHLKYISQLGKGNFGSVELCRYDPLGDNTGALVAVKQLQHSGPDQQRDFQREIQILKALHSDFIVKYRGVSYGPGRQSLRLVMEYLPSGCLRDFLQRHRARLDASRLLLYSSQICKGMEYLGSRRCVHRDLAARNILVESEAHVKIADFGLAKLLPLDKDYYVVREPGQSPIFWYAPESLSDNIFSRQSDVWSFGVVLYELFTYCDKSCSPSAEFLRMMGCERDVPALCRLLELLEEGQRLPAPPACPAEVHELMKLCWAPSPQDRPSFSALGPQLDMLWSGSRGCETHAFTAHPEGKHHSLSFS
Nature of the data set: In vitro JAK3 inhibition (no preincubation). The data set is classed as biochemical. The procedure:
In vitro BTK and JAK3 inhibition studies are shown in Table 17 and Table 18 (no preincubation).

Data set [1] deals with T2, BTK (Homo sapiens, UniProt Q06187). Nature of the data set: In vitro BTK inhibition (no preincubation). It is filed as biochemical.
A further data set deals with BTK (His-tagged protein). The experiment in a line: Covalent modification of BTK by mass spectrometry (intact protein). The data set is classed as binding. The following applies: 10 μM BTK, 50 μM compound, 2 hours, 30° C. The protocol: After incubation of 10 μM BTK in the presence of 50 μM of compound I-A1 for 2 hours at 30° C., the mass of the modified protein was determined by mass spectrometry. […] After incubation with inhibitor I-A1, the intensity of this had decreased by an order of magnitude, and the most intense peak is consistent with the protein whose mass was increased by 595 Da, corresponding closely to the expected mass of the inhibitor I-A1 (less one fluoride from inhibitor, and one proton from protein, 596 Da).

Data set [2] concerns normal pooled human fibroblasts. Nature of the data set: Viability of normal pooled human fibroblasts (Example G1). The following applies: Fibroblast, read-out: Human Fibroblast (IC50, μM).
For data set [3], the system named is normal primary human fibroblast (NHF) cell lines. The experiment in a line: Toxicity study, CellTiter-Blue viability in normal primary human fibroblasts (NHF). It is filed as cell-based. The following applies: NHF cells, 72 hrs exposure. The procedure:
Anti-cancer efficacy of exemplary compounds of this application was assessed in vitro in different cancer cell lines. Cell viability was examined following treatment at various concentration of inhibitor (0.097656-50 μM) using a cell Titer-Blue cell viability assay. 1×10^4 cells (NHF cells)/well were plated in 96-well assay plates in culture medium. All cells were grown in DMEM, IMDM and RPMI-1640 supplemented with 10% FBS. After 24 hrs, test compounds and vehicle controls were added to appropriate wells so the final volume was 100p in each well. The cells were cultured for the desired test exposure period (72 hrs) at 37° C. and 5% CO2. The assay plates were removed from 37° C. incubator and 20 μl/well of CellTiter-Blue® Reagent was added. The plates were incubated using standard cell culture conditions for 1-4 hours and the plates were shaken for 10 seconds and record fluorescence at 560/590 nm.
Representative data for exemplary compounds against select normal primary human fibroblast (NHF) cell lines are presented in the following Table 7.
(The colour change of resazurin is a common sign of viable cells or microbes.)

Data set [4] has as its system RL human non-Hodgkin's lymphoma B cell line. Nature of the data set: Cell viability in RL cells (Table 6). It is filed as cell-based.
Data set [5] deals with T2, BTK. The experiment in a line: BTK washout experiment. It is filed as biochemical. Conditions: 3-h incubation, 40 nM BTK, 296 nM compound, 400-fold dilution. The protocol: After a 3-h incubation of 40 nM BTK in the presence of 296 nM of compound I-A1, a 400-fold dilution was performed to remove excess inhibitor.
After a 6-h incubation of 50 nM BTK in the presence of 280 nM of compound 3A-6, a 400-fold dilution was performed to remove excess inhibitor.
By way of contrast, a “washout” experiment performed with ARQ-531 gives a very different result, because this compound lacks a warhead and is known to inhibit BTK reversibly. After a 6-h incubation of 50 nM BTK in the presence of 177 nM of ARQ-531, a 400-fold dilution was performed to remove excess inhibitor. […] This indicates to one of ordinary skill in the art that the enzyme was not inhibited irreversibly during the incubation with ARQ-531.

Data set [6] relates to RL human non-Hodgkin's lymphoma B cell line. The experiment in a line: In vitro efficacy in RL cells (Example G1). Conditions: read-out: RL (IC50, μM).
The nature of data set [7]: Parallel artificial membrane permeability assay (PAMPA), Example C4. The data set is classed as in vitro ADME. Conditions: PBS pH 7.4, 10 μM, 16 hours. The procedure: Assay Procedures. […] 7) Cover with plate lid. Vortex at 750 rpm for 100 seconds. […] Determine the compound concentrations by LC/MS/MS.
In general terms: In PAMPA a lipid-coated filter parts donor from acceptor wells.

The target in data set [8] is T2, BTK. Nature of the data set: BTK irreversible inhibition, enzyme kinetic analysis. It is filed as biochemical. The following applies: 0.1 nM BTK, 500 μM ATP. The procedure:
One of ordinary skill in the art will recognize that this is consistent with the irreversible inhibition of BTK by compound I-A1.
One of ordinary skill in the art will recognize that this is consistent with the irreversible inhibition of BTK by compound I-A6.
One of ordinary skill in the art will recognize that this is consistent with the irreversible inhibition of BTK by compound 3A-2.
The shift of IC50 to a lower value after pre-incubation of the enzyme indicates to one of ordinary skill in the art that a significant portion of the enzyme was inhibited irreversibly during the incubation period.

The target in data set [9] is T2, BTK. The experiment in a line: Selected kinase inhibition, BTK (Table 6). It is filed as biochemical.

T2 sequence (Q06187 whole entry, species assumed): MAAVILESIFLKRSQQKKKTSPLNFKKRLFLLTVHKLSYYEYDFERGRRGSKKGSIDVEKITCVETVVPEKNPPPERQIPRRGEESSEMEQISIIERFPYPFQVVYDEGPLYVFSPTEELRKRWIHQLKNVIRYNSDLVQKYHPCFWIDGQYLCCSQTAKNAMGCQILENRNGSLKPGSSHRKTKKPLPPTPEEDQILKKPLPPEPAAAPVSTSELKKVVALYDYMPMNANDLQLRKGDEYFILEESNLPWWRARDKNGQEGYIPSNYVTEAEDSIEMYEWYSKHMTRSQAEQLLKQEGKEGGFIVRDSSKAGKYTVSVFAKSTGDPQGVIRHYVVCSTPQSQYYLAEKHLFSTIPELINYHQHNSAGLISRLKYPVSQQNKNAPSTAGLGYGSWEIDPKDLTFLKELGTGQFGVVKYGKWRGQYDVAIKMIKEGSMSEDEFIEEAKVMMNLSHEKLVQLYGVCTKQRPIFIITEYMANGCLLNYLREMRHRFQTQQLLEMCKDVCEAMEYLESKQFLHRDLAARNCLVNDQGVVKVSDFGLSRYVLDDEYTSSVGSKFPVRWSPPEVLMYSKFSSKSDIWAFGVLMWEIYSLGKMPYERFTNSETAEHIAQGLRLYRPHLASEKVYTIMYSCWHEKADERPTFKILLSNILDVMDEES

The term IC50 denotes the concentration at which inhibition is half-maximal. At JAK3, `C[C@H]1CC[C@@H](Nc2ncnc3[nH]ccc23)CN1S(=O)(=O)c1c(F)c(F)c(F)c(F)c1F` [Compound 3A-25, N-((3R,6S)-6-methyl-1-((perfluorophenyl)sulfonyl)piperidin-3-yl)-7H-pyrrolo[2,3-d]pyrimidin-4-amine] had an IC50 of 1000 to 10000 nM.
On to `O=S(=O)(NCCNc1ncnc2[nH]ccc12)c1c(F)c(F)c(F)c(F)c1F` [Compound 3A-27, N-(2-((7H-pyrrolo[2,3-d]pyrimidin-4-yl)amino)ethyl)-2,3,4,5,6-pentafluorobenzene sulfonamide], for which the results for the IC50 at BTK [1] (Table 18) and on JAK3 were 0.1 to 10 nM and 1000 to 10000 nM, respectively.
The corresponding values for `CN(CCNc1ncnc2[nH]ccc12)S(=O)(=O)c1c(F)c(F)c(F)c(F)c1F` [Compound 3A-28, N-(2-((7H-pyrrolo[2,3-d]pyrimidin-4-yl)amino)ethyl)-2,3,4,5,6-pentafluoro-N-methylbenzenesulfonamide] are 100 to 1000 nM and 1000 to 10000 nM.
For `Nc1ncnc2c1c(-c1ccc(Oc3ccccc3)cc1)nn2[C@@H]1CCCN(S(=O)(=O)c2c(F)c(F)c(F)c(F)c2F)C1` [I-A1, (R)-1-(1-((perfluorophenyl)sulfonyl)piperidin-3-yl)-3-(4-phenoxyphenyl)-1H-pyrazolo[3,4-d]pyrimidin-4-amine], in the data set on BTK (His-tagged protein), the “mass increase of BTK after incubation” value stood at 595 Da. Besides, the IC50 in data set [2] was 3.98 µM; in data set [3] it was 1000 to 10000 nM; in data set [4], 1000 to 10000 nM; in data set [6], 1.61 µM. Further, at BTK [5] (read-out: enzyme inhibited irreversibly), the inhibition at 0.296 µM was above 90%. Besides, the remaining activity at 0.296 µM on BTK [5] (relative to DMSO, read-out: residual activity of the enzyme) is 7%. For the same compound, in data set [7], the “−Log Pe” value is “B (>5 to ≤6)”. The “inhibition profile by enzyme kinetic analysis” value at BTK [8] was “time-dependent inhibition”.
Consider `Nc1ncnc2c1c(-c1ccc(Oc3ccccc3)cc1)nn2[C@H]1CCCN(S(=O)(=O)c2c(F)c(F)c(F)c(F)c2F)C1` [I-A2, (S)-1-(1-((perfluorophenyl)sulfonyl)piperidin-3-yl)-3-(4-phenoxyphenyl)-1H-pyrazolo[3,4-d]pyrimidin-4-amine], for which the IC50 in data set [3] lay in the range of 1000 to 10000 nM; in [4] it was 1000 to 10000 nM; at BTK [9], 100 to 1000 nM.
In the case of `Nc1ncnc2c1c(-c1ccc(Oc3ccccc3)cc1)nn2S(=O)(=O)c1c(F)c(F)c(F)c(F)c1F` [I-A3, 1-((perfluorophenyl)sulfonyl)-3-(4-phenoxyphenyl)-1H-pyrazolo[3,4-d]pyrimidin-4-amine], the figures for the IC50 (in data set [4]; on BTK [9]) were 1000 to 10000 nM and 100 to 1000 nM, respectively.
Turning to `Nc1ncnc2c1c(-c1ccc(Oc3ccccc3)cc1)nn2[C@@H]1CCCN(S(=O)(=O)c2cc(F)c(F)c(F)c2F)C1` [I-A4, (R)-3-(4-phenoxyphenyl)-1-(1-((2,3,4,5-tetrafluorophenyl)sulfonyl)piperidin-3-yl)-1H-pyrazolo[3,4-d]pyrimidin-4-amine], the IC50 in data set [3] was above 25000 nM; on BTK [9] it was 10 to 100 nM. Besides, in data set [7], the “−Log Pe” value was “B (>5 to ≤6)”.
Broadly, the kinact is the maximal first-order rate at which the target is inactivated. For the compound `Nc1ncnc2c1c(-c1ccc(Oc3ccccc3)cc1)nn2[C@@H]1CCCN(S(=O)(=O)c2c(F)c(F)c(F)c(F)c2OC2CC2)C1` [I-A6, (R)-1-(1-((2-cyclopropoxy-3,4,5,6-tetrafluorophenyl)sulfonyl)piperidin-3-yl)-3-(4-phenoxyphenyl)-1H-pyrazolo[3,4-d]pyrimidin-4-amine], the IC50 is 100 to 1000 nM against BTK [1] (Table 17); above 25 µM in [2]; above 25000 nM in data set [3]; 1 µM in data set [6]; 100 to 1000 nM at BTK [9]. The “−Log Pe” value in data set [7] is recorded as “C (>6 to ≤7)”. In addition, at BTK [8], the “inhibition profile by enzyme kinetic analysis” value is “time-dependent inhibition”. Also, on BTK [8] (saturation kinetics), the kinact came out at 0.000671 s⁻¹. Further, the Ki on BTK [8] (saturation kinetics of irreversible inhibition) came out at 71.3 nM.
On to `Nc1ncnc2c1c(-c1ccc(Oc3ccccc3)cc1)nn2[C@@H]1CCCN(S(=O)(=O)c2c(OC3CC3)c(F)c(F)c(F)c2OC2CC2)C1` [I-A7, (R)-1-(1-((2,6-dicyclopropoxy-3,4,5-trifluorophenyl)sulfonyl)piperidin-3-yl)-3-(4-phenoxyphenyl)-1H-pyrazolo[3,4-d]pyrimidin-4-amine], for which the IC50 in [3] was above 25000 nM. The “−Log Pe” value in data set [7] is on record as “C (>6 to ≤7)”.
Take `C=CC(=O)N1CCC[C@@H](n2nc(-c3ccc(Oc4ccccc4)cc3)c3c(N)ncnc32)C1` [Ibrutinib, reference compound]: the IC50 is 26.8 µM in data set [2], 10000 to 25000 nM in data set [3], 10000 to 30000 nM in [4] and 10.3 µM in data set [6].

The record behind these values is patent US12559454B2, “Benzenesulfonamide derivatives and uses thereof” (2692372 Ontario, Inc., priority 2019, dated 2026).
